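Briefly, cells in 96-well plates were exposed to five compound concentrations for 48 h, and endpoints were estimated by linear interpolation. Here, GI50 denotes the concentration required for 50% inhibition of growth. TGI is the concentration that stops growth completely.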
Experiments:
Test in all cases: NCI anticancer screen, dose series, 48 h
HOP-62 NSCLC = test system: HOP-62 NSCLC
UACC-62 melanoma = test system: UACC-62 melanoma
A498 renal = test system: A498 renal
HT29 colon = test system: HT29 colon
PC-3 prostate = test system: PC-3 prostate
MOLT-4 leukemia = test system: MOLT-4 leukemia
SR leukemia = test system: SR leukemia
NCI-H522 lung = test system: NCI-H522 lung
SK-MEL-5 melanoma = test system: SK-MEL-5 melanoma
NCI-H226 lung = test system: NCI-H226 lung

| SMILES | TGI (HOP-62 NSCLC) | TGI (UACC-62 melanoma) | TGI (A498 renal) | TGI (HT29 colon) | TGI (PC-3 prostate) | TGI (MOLT-4 leukemia) | TGI (SR leukemia) | TGI (NCI-H522 lung) | TGI (SK-MEL-5 melanoma) | TGI (NCI-H226 lung) | GI50 (HOP-62 NSCLC) | GI50 (UACC-62 melanoma) | GI50 (A498 renal) | GI50 (HT29 colon) | GI50 (PC-3 prostate) | GI50 (MOLT-4 leukemia) | GI50 (NCI-H226 lung) | GI50 (SR leukemia) | GI50 (NCI-H522 lung) | GI50 (SK-MEL-5 melanoma) |
| --- | --- | --- | --- | --- | --- | --- | --- | --- | --- | --- | --- | --- | --- | --- | --- | --- | --- | --- | --- | --- |
| COC1=CC(=O)c2c(O)c3c(c(O)c2C1=O)OC1(Oc2c(cc4cc(C)oc(=O)c4c2O)CC1O)C3O (stereo not given) | > 100 µM | > 100 µM | > 100 µM | > 100 µM | > 100 µM | > 100 µM | > 100 µM | 54.6 µM | 95 µM |  |  |  |  |  |  |  |  |  |  |  |
| CCCCCCCCCCCCCCCCSS(C)(=O)=O | > 100 µM | > 57.5 µM | > 97.2 µM | > 69.6 µM | > 100 µM | 6.77 µM | 21.1 µM | 11 µM | 59 µM | > 35.3 µM |  |  |  |  |  |  |  |  |  |  |
| COc1cc(/C=C/C(=O)c2ccc(F)cc2)ccc1OCCCCOc1cc2c(cc1OC)C(=O)N1CCCC1C=N2 (stereo not given) | 12.5 µM | 11.4 µM | 5.48 µM | > 20.4 µM | 12.8 µM | 2.18 µM | 0.841 µM | 4.35 µM | 5.37 µM | 1.7 µM | 0.952 µM | 777 nM | 0.882 µM | 895 nM | 0.923 µM | 317 nM | 683 nM | 188 nM | 1640 nM | 758 nM |
| OCCNC(=S)Nc1ccc(-c2nc(N3C[C@H]4CC[C@@H](C3)O4)c3cccn3n2)cc1 | 0.662 µM | 0.194 µM | 0.0307 µM | 22.5 µM | 8.13 µM | 17.1 µM | > 38 µM | 3.37 µM | 0.642 µM | 0.714 µM | 0.0324 µM | 18 nM | < 0.01 µM | 117 nM | 0.0284 µM | 90 nM | 30.5 nM | 82 nM | 29 nM | 66.8 nM |
| O=C(CC(O)c1cccnc1)CC(O)c1cccnc1 (stereo not given) | 50.8 µM | 32.2 µM | 30.6 µM | 20.7 µM | 42.9 µM | > 52.1 µM | > 100 µM | 32.1 µM | 32.2 µM | > 100 µM |  |  |  |  |  |  |  |  |  |  |
| C[C@]12CC/C(=N\O)C[C@@H]1CC[C@@H]1[C@@H]2CC[C@]2(C)/C(=N/O)CC[C@@H]12 |  | > 100 µM | > 100 µM | > 100 µM | > 100 µM | > 100 µM | > 100 µM | 58.3 µM | 53.9 µM |  |  | 35600 nM | 47.2 µM | 42700 nM | 43.7 µM | 64400 nM |  | 35000 nM | 21000 nM | 23600 nM |
| CCN1C(=O)/C(=C\c2coc3ccccc3c2=O)SC1=S | > 100 µM | > 100 µM | > 100 µM | > 100 µM |  | > 100 µM | > 100 µM | > 100 µM | > 100 µM | > 100 µM |  |  |  |  |  |  |  |  |  |  |
| CC[C@@]1(O)C(=O)OCc2c1cc1n(c2=O)Cc2cc3c([N+](=O)[O-])c(O)ccc3nc2-1 | 0.0964 µM | 0.265 µM | 5.66 µM | > 100 µM |  | 0.188 µM | < 0.0215 µM | 3.07 µM | 2.39 µM |  | 0.026 µM | 25.5 nM | 0.915 µM | 2640 nM |  | 22.7 nM | 1290 nM |  | 132 nM | 459 nM |
| CN(Cc1ccccc1)c1ncnc2ccc(Br)cc12 | 25.9 µM | 27.1 µM | 17.1 µM |  | 33.4 µM | 28.8 µM | 38 µM | > 100 µM | 24.1 µM | 39.1 µM | 12.6 µM | 13100 nM | 4.8 µM |  | 11.7 µM | 5770 nM | 13800 nM | 16500 nM | 23100 nM | 11800 nM |
| O=C1/C(=N/N=C(c2ccccc2)c2ccccc2)c2ccccc2-c2ccccc21 | > 100 µM | > 100 µM |  | > 100 µM | > 100 µM | > 100 µM | > 100 µM | > 100 µM | > 100 µM | > 100 µM |  |  |  |  |  |  |  |  |  |  |
| Cc1ccccc1NC(=O)N/C(N)=N/c1nc(C)c(C)s1 | > 65.6 µM | > 100 µM | 0.803 µM | > 33 µM | > 100 µM | > 100 µM | > 100 µM | > 42.5 µM | > 100 µM | > 100 µM | 0.404 µM | 179 nM | 0.125 µM | 104 nM | 0.395 µM | 467 nM | 2080 nM | 43.8 nM | 47.8 nM | 282 nM |
| O=C1c2cccc3c([N+](=O)[O-])ccc(c23)C(=O)N1CCCCl | > 10 µM | > 10 µM | > 10 µM | > 10 µM | > 10 µM | 5.95 µM | > 10 µM | > 10 µM | > 10 µM | > 10 µM | 6.6 µM | 4480 nM | > 10 µM | 4250 nM | 7.49 µM | 2410 nM | 2830 nM | 334 nM | 4340 nM | > 10000 nM |
| COc1ccc(Nc2[nH]n(C3=Nc4ccccc4Sc4ccccc43)c(=O)c2C#N)cc1 | > 100 µM | 11 µM | 8.01 µM | 9.35 µM | > 100 µM |  | > 100 µM | 3.87 µM | 1.48 µM | 9.81 µM | 3.06 µM | 1210 nM | 1.39 µM | 1990 nM | 0.676 µM |  | 1480 nM | 518 nM | 400 nM | 396 nM |
| Cc1c(C)n(CC(O)CNC2CCCCC2C)c2ccccc12 (stereo not given) | 32 µM | 29 µM | 19.6 µM |  | 26.2 µM | 41.2 µM | 34.1 µM |  | 25.4 µM | 35.9 µM | 16.6 µM | 14800 nM | 4.99 µM |  | 13.4 µM | 15300 nM | 17200 nM | 12400 nM |  | 12600 nM |
| O=C(NCCN1CCOCC1)Nc1nc2ccc(Sc3nnc4ccc(-c5ccc(F)cc5)nn34)cc2s1 | > 100 µM | 21.4 µM | > 100 µM | > 24.2 µM | > 100 µM | > 100 µM | > 100 µM | > 100 µM | > 28.6 µM | > 100 µM | > 20.8 µM | 6160 nM | 80.6 µM | 2790 nM | > 100 µM | > 100000 nM | 3670 nM | 5040 nM | 26400 nM |  |

From PubChem BioAssay (NCI)
